According to patent US7291456B2, “Method for determining differences in molecular interactions and for screening a combinatorial library” (The Regents of the University of California, priority 2002, dated 2007):

Tested on: human plasma
Test: One-bead-one-compound cXXXXXc peptide library screening, biotinylated serum (first mixture) then plasma (target mixture), BCIP staining and (B-A)/A image analysis
Format: binding
Conditions: 4 μg biotinylated serum, then 4 μg biotinylated plasma, 1 hour each at 23° C., sequence by automated peptide sequencing
From the text: General Method. The two mixtures of molecules to be compared were human plasma, referred to as “the target mixture,” and human serum, referred to as “the first mixture.” Both the plasma and serum were biotinylated with EZ-Link™ Sulfo-NHS-LC-Biotin from Pierce. Bead libraries were generated on TenteGel from Rapp Polymere. Amino acids used in bead library synthesis were from Synpep. Bead library screenings were done in disposable polypropylene columns from Perkin Elmer Life Sciences. All buffer reagents were from Sigma unless otherwise noted. PBS, TBS and BCIP buffers were as described in Lam, Kit S. and Michal Lebl, “Synthesis of a one-bead one-compound combinatorial peptide library,” Methods in Molecular Biology, vol. 87, Combinatorial Peptide Library Protocols. Edited by Shmuel Cabilly (Humana Press: 1997), 1-6. Bead staining utilized BCIP from Bio Synth AG which was hydrolyzed with streptavidin-alkaline phosphatase conjugate from Zymed. Bead immobilization was done in SeaPlaque agarose from Bio Wittaker Molecular Applications in Omni tray lids from Nunc/Nalgene. Scanned images were generated on a flatbed transparency scanner from Umax. Computer imaging was accomplished with Adobe Photoshop and compiler software was from Metrowerks. Amino acid sequencing was done on an Applied Biosystems Procise 494 Protein Sequencer.
Library Synthesis. “One-bead-one-compound” cXXXXXc peptide libraries were synthesized essentially as described (Lam and Lebl, Methods in Molecular Biology, vol. 87) using the “split synthesis approach,” where “X” denotes any L-amino acid except for cysteine, arginine, and lysine, and “c” is D-cysteine. TenteGel was used as a solid support and standard Fmoc chemistry was used for the solid phase peptide synthesis reactions. (Stewart and Young 1984. Solid-Phase Peptide Synthesis. Pierce Chemical Co. Atherton, E. and R. C. Sheppard. 1989. Solid Phase Peptide Synthesis: A Practical Approach. Practical Approach Series.)
Extract Preparation and Biotinlation. Human plasma and serum were prepared by the collection of human blood into stoppered vacuum tubes in the presence of Na-heparin as an anti-coagulant for plasma and in the absence of Na-heparin for serum. Blood was allowed to clot in the tubes for 25 minutes after which the top layer of […] was collected. Na-heparin was added to the serum to equalize the amount of Na-heparin in plasma and serum after which both samples were centrifuged at 1000 rpm for 20 minutes in a Sorvall SS34 centrifuge rotor. After centrifugation, samples were aliquoted, dialyzed against PBS for four hours at 4° C., quantitated and stored frozen at −80° C. The concentrations of the plasma and serum protein extracts after dialysis were 66.5 and 57.8 mg/ml, respectively.
Plasma and serum were tagged using biotinylation where biotin was the label and streptavidin alkaline phosphatase conjugate was the label binder. Biotinylation was performed according to the manufacturer's instructions. About 0.2 mg of protein was incubated in PBS with a 20-fold molar excess of sulfo-NHS-LC-biotin for 30 minutes at 23° C. The reaction was quenched by the addition of Tris-HCl pH 7.9 to 100 mM. For calculations of molarity, the average molecular weight of the proteins in the plasma and serum solutions was assumed to be 50 kD.
Library Screening. Four experiments were conducted. On average, 250,000 “one-bead-one-compound” beads were screened in each experiment. All bead reactions were performed in 1.5 ml polypropylene disposable micro-columns with inside dimensions of 37 mm×6 mm. Unless otherwise noted, all bead reactions were incubated on a Lab quake bench top rotator (Barnstead/Thermolyne) for 1 hour at 23° C. Bead libraries were stored in PBS with 0.05% sodium-azide. All incubation buffers and components were thoroughly mixed before addition to the column containing the bead library. […]

Substance	ligands identified on true positive beads (beads that bound molecules essentially unique to the plasma)
cAHVWHc	identified
cFHNNHc	identified
cGIHYLc	identified
cHGHTIc	identified
cHTLHQc	identified
cHVHPWc	identified
cHYHVSc	identified
cHYQTGc	identified
cMHGHFc	identified
cNLTHIc	identified
cPFHHSc	identified
cYGHFSc	identified
